Results: US8314253B2, “Bridged tetrahydronaphthalene derivatives” (Actelion Pharmaceuticals Ltd., priority 2008, dated 2012)

system: human Cav3.1 Cav3.2 or Cav3.3 channel; test: In vitro assay T channel (FLIPR, Ca2+-induced fluorescence); format: cell-based; settings: HEK293 cells expressing human Cav3.1 Cav3.2 or Cav3.3; 10 mM Ca2+; determined up to 10 μM; read-out: T channel antagonistic activity IC50
Procedure: Human embryonic kidney (HEK293) cells expressing the human Cav3.1 Cav3.2 or Cav3.3 channel, respectively, are grown in culture medium (DMEM containing 10% heat-inactivated fetal calf serum (FCS), 100 U/ml penicillin, 100 μg/ml streptomycin and 1 mg/ml G418). The cells are seeded at 20.000 cells/well into 384-well black clear bottom sterile plates (poly-L-lysine-coated, Becton Dickinson). The seeded plates are incubated overnight at 37° C. in 5% CO2. The Ca^2+ solution is prepared as 100 mM stock solution in 100 mM tetraethylammoniumchloride (TEA-chloride), 50 mM HEPES, 2.5 mM CaCl2, 5 mM KCl, 1 mM MgCl2, adjusted to pH 7.2 with TEA-hydroxide, for use in the assay at a final concentration of 10 mM. […] Fluorescence is measured for each well at 2 second intervals for 8 minutes, and the area under the curve of each fluorescence peak is compared to the area of the fluorescence peak induced by 10 mM Ca^2+ with vehicle in place of antagonist.

Row | SMILES | IC50
1 | COc1cccc2[nH]c(CCCN(C)CCC3(O)CC4CCCC3c3ccccc34)nc12 (single isomer, unassigned) [Example 13, (1S,8S,12S)-12-(2-{[3-(4-Methoxy-1H-benzoimidazol-2-yl)-propyl]-methyl-amino}-ethyl)-tricyclo[6.3.2.0^2,7]trideca-2,4,6-trien-12-ol or (1R,8R,12R)-12-(2-{[3-(4-methoxy-1H-benzoimidazol-2-yl)-propyl]-methyl-amino}-ethyl)-tricyclo[6.3.2.0^2,7]trideca-2,4,6-trien-12-ol] | 1220 nM
2 | O[C@@]1(CCN2CCC(c3nc4ccccc4[nH]3)CC2)C[C@H]2CC[C@@H]1c1ccccc12 (relative stereo) [Example 6, rac-(1R*,8R*,9R*)-9-{2-[4-(1H-Benzoimidazol-2-yl)-piperidin-1-yl]-ethyl}-tricyclo[6.2.2.0^2,7]dodeca-2,4,6-trien-9-ol] | 1360 nM
3 | CN(CCCc1nc2ccccc2[nH]1)CC[C@@]1(O)C[C@H]2CC[C@@H]1c1ccccc12 (relative stereo) [Example 5, rac-(1R*,8R*,9S*)-9-(2-{[3-(1H-Benzoimidazol-2-yl)-propyl]-methyl-amino}-ethyl)-tricyclo[6.2.2.0^2,7]dodeca-2,4,6-trien-9-ol] | > 10000 nM
4 | CN(CCCc1nc2ccccc2[nH]1)CCC1(O)CC2CCCC1c1ccccc12 (single isomer, unassigned) [Example 12, (1S,8S,12S)-12-(2-{[3-(1H-Benzoimidazol-2-yl)-propyl]-methyl-amino}-ethyl)-tricyclo[6.3.2.0^2,7]trideca-2,4,6-trien-12-ol or (1R,8R,12R)-12-(2-{[3-(1H-benzoimidazol-2-yl)-propyl]-methyl-amino}-ethyl)-tricyclo[6.3.2.0^2,7]trideca-2,4,6-trien-12-ol] | 631 nM

Next, values leading:

Row | IC50 | SMILES
5 | 514 nM | COc1ccc(C)c2[nH]c(CCCN(C)CC[C@@]3(OC(=O)CC(F)(F)F)C[C@@H]4CCC[C@H]3c3ccccc34)nc12 [Example 14B, 3,3,3-Trifluoro-propionic acid (1S,8S,12S)-12-(2-{[3-(4-methoxy-7-methyl-1H-benzoimidazol-2-yl)-propyl]-methyl-amino}-ethyl)-tricyclo[6.3.2.0^2,7]trideca-2,4,6-trien-12-yl ester or 3,3,3-trifluoro-propionic acid (1R,8R,12R)-12-(2-{[3-(4-methoxy-7-methyl-1H-benzoimidazol-2-yl)-propyl]-methyl-amino}-ethyl)-tricyclo[6.3.2.0^2,7]trideca-2,4,6-trien-12-yl ester]
6 | 544 nM | COc1cccc2[nH]c(CCCN(C)CCC3(OC(=O)C(C)C)CC4CCCC3c3ccccc34)nc12 [Example 13A, Isobutyric acid (1S,8S,12S)-12-(2-{[3-(4-Methoxy-1H-benzoimidazol-2-yl)-propyl]-methyl-amino}-ethyl)-tricyclo[6.3.2.0^2,7]trideca-2,4,6-trien-12-yl ester or isobutyric acid (1R,8R,12R)-12-(2-{[3-(4-methoxy-1H-benzoimidazol-2-yl)-propyl]-methyl-amino}-ethyl)-tricyclo[6.3.2.0^2,7]trideca-2,4,6-trien-12-yl ester]
7 | 969 nM | CN(CCCc1nc2ccccc2[nH]1)CC[C@]1(OC(=O)C2CC2)C[C@H]2CC[C@@H]1c1ccccc12 (relative stereo) [Example 1C, rac-Cyclopropanecarboxylic acid (1R*,8R*,9R*)-9-(2-{[3-(1H-benzoimidazol-2-yl)-propyl]-methyl-amino}-ethyl)-tricyclo[6.2.2.0^2,7]dodeca-2,4,6-trien-9-yl ester]
8 | 1530 nM | COCC(=O)O[C@@]1(CCN(C)CCCc2nc3ccccc3[nH]2)C[C@H]2CC[C@@H]1c1ccccc12 (relative stereo) [Example 1A, rac-Methoxy-acetic acid (1R*,8R*,9R*)-9-(2-{[3-(1H-benzoimidazol-2-yl)-propyl]-methyl-amino}-ethyl)-tricyclo[6.2.2.0^2,7]dodeca-2,4,6-trien-9-yl ester]
